Results on two molecules are retold here after patent US7582675B2, “Flavonoid compound and process for producing the same” (Pokka Corporation, priority 2001, dated 2009).

One data set in a line: solubility. The format is physicochemical.
Data set [1] is described as follows: radical scavenging ability measurement (DPPH), antioxidative activity in a hydrophilic solvent. The format is biochemical. The settings on record: samples 0.1, 1 and 10 μM, 20 minutes at room temperature, FIG. 1. How it is done: The antioxidative activity in a hydrophilic solvent was measured for hesperidin (HE) and the isolated 8-hydroxyhesperetin (8OH-HE). It should be noted that antioxidative activity was measured in accordance with the radical scavenging ability measurement method described in Yamaguchi, et al., Biosci. Biotechnol. Biochem., 62, 1201-1204, 1998. More specifically, an 8OH-HE sample solution and HE sample solution were first prepared having concentrations of 0.1 μM, 1 μM and 10 μM by dissolving 8OH-HE or HE in ethanol. 200 μL of each sample solution was then mixed into 800 μL of 0.1 M Tris-HCl buffer (pH 7.4). 1 ml of 500 μM DPPH (1,1-diphenyl-2-picrylhydrazyl) in ethanol was added to each mixture to prepare reaction solutions. After adequately mixing the reaction solutions, they were allowed to react for 20 minutes in a dark location at room temperature. Next, 20 μL of each reaction solution was injected into an analytical HPLC system (LC-10A) using a microsyringe to analyze the DPPH concentration. The DPPH concentration was calculated from peak area of DPPH. […] Using 200 μL of a solution of ethanol only instead of the sample solutions for the control, the peak area of DPPH was similarly measured for the control by HPLC analysis. The radical scavenging activity (%) of 8OH-HE and HE were then determined according to the calculation formula indicated in Formula 1. […]

Data set [2] can be described thus: lipid peroxidation of methyl linoleate by HPLC, antioxidative activity in a hydrophobic solvent. The data set is classed as biochemical. The settings on record: 100 μM sample solutions, 40° C. for 18 hours, FIG. 2, listed as 8OH-HE. How it is done: The antioxidative activity in a hydrophobic solvent was measured for hesperidin (HE), isolated 8-hydroxyhesperetin (8OH-HE) and α-tocopherol (Toc), a compound that is known to have a high level of antioxidative activity. Incidentally, antioxidative activity was measured by HPLC analysis using methyl linoleate as described in Terao J., et al., Lipids, 21(4), 255-260, 1986.
More specifically, an 8OH-HE sample solution, HE sample solution and Toc sample solution having concentrations of 100 μM were first prepared by dissolving 8OH-HE, HE and Toc in ethanol. 89 mg (100 μL) aliquots of methyl linoleate were each weighed into three small test tubes having an inner diameter of 14 mm. 100 μL of each sample solution was added to the three test tubes and mixed well to prepare mixtures.
Next, each of the mixtures was dried by completely removing the solvent by placing each test tube in a vacuum desiccator in which pressure was reduced using a vacuum pump. […] The sum of the HPLC peak areas of 13-hydroperoxide and 9-hydroperoxide formed by the methyl linoleate was then determined.
Moreover, HPLC analysis was also performed using 100 μL of a solution of ethanol only instead of the sample solutions for the control. The sum of the HPLC peak areas of the control was also determined. The degree of lipid peroxidation (%) of each sample was then determined from Formula 2. […]

The nature of data set [3]: antioxidative action (general statement, no test named). The settings on record: general statement in the description.

“Also recorded” adds a separate entry of the source.

As to `COc1ccc([C@@H]2CC(=O)c3c(O)cc(O[C@@H]4O[C@H](CO[C@@H]5O[C@@H](C)[C@H](O)[C@@H](O)[C@H]5O)[C@@H](O)[C@H](O)[C@H]4O)cc3O2)cc1O` [hesperidin, reference compound], in the data set “solubility” (culture medium, varies with the amount of organic solvent added), the “saturation concentration (solubility limit) in the medium” value is given as at most 0.3 % by weight.
On to `COc1ccc(C2CC(=O)c3c(O)cc(O)c(O)c3O2)cc1O` (stereo not shown) [8-hydroxyhesperetin, 3′,5,7,8-tetrahydroxy-4′-methoxyflavonone], for which the “antioxidative activity (radical scavenging activity)” value in data set [1] is recorded as “much higher level of antioxidative activity than HE”. The “antioxidative activity (degree of lipid peroxidation)” value in data set [2] is “much higher level of antioxidative activity than HE; also recorded: antioxidative activity that was comparable to α-tocopherol”. In “solubility” (methanol, ethanol, DMSO), the “solubility in methanol, ethanol and dimethyl sulfoxide (DMSO)” value was “easily dissolves”. Moreover, the solubility in water result in the data set “solubility” (water) is “somewhat soluble”. The antioxidative action entry in data set [3] is “extremely high level of antioxidative action comparable to that of α-tocopherol”; in data set [3] (listed as 8-Hydroxyhesperetin), “remarkably high antioxidative action as compared with hesperidin and hesperetin”.
